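How tested: cells in 96-well plates exposed to compound for 48 hours at five concentrations. At the GI50, growth is halved.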 Active and inactive are the calls of the source. No stated cut-off is given here; in the data, active = GI50 up to about 1.1 µM and inactive = higher.

Results on 14 compounds are retold here after ChEMBL document CHEMBL1201862, “PubChem BioAssay data set” (2004).

Among the test systems are A498; A549; ACHN; EKVX; HCC 2998; HCT-15; MOLT-4; NCI-H23; NCI-H460; OVCAR-5; SF-539; SW-620; U-251; UACC-257; UO-31; CAKI-1.
Experiment in all cases: DTP human tumour cell line panel, 48 h

In general, GI50 refers to the concentration that inhibits growth by half. Turning to `CC(=O)O[C@]1(C)OC(=O)[C@@H](CC(C)C)N1[N+](=O)[O-]`, the GI50 in the assay on A498 was > 100 µM (inactive); in the assay with A549 it was > 100 µM (inactive); in the assay with ACHN it was > 100 µM (inactive); in the assay on EKVX, > 100 µM (inactive); in the assay with HCC 2998, > 100 µM (inactive); with HCT-15, above 100 µM. The GI50 in the assay with MOLT-4, in the assay on NCI-H23, with NCI-H460, in the assay on OVCAR-5, in the assay on SF-539 and in the assay with SW-620 was > 100 µM (inactive) each time. Moreover, the GI50 with U-251, in the assay on UACC-257 and in the assay on UO-31 was > 100 µM (inactive) in each case.

Consider `CCOc1ccc(/N=C\c2cc(OC)c(OC)c(OC)c2)cc1`, for which the GI50 is > 100 µM (inactive) with A498; > 100 µM (inactive) in the assay with A549; > 100 µM (inactive) with ACHN; > 100 µM (inactive) in the assay with CAKI-1; > 100 µM (inactive) with EKVX; 32.4 µM with HCT-15. The GI50 in the assay with MOLT-4 was > 100 µM (inactive); in the assay on NCI-H23 it was > 100 µM (inactive); in the assay with NCI-H460, > 100 µM (inactive); in the assay on OVCAR-5, > 100 µM (inactive); with SF-539, > 100 µM (inactive); in the assay on SW-620, 14.9 µM (inactive). Also, the GI50 with U-251, in the assay with UACC-257 and in the assay with UO-31 was > 100 µM (inactive) throughout.

Turning to `[O-][S+]1Nc2cccc(C(F)(F)F)c2S1` (centres undefined), the GI50 in the assay on A498 is 22.9 µM (inactive); in the assay on A549 it was 34 µM (inactive); in the assay on ACHN it was 37.2 µM (inactive); in the assay on CAKI-1, 30.5 µM (inactive); in the assay on EKVX, 38.8 µM (inactive); with HCC 2998 it was 26.4 µM (inactive). Also, the GI50 in the assay with HCT-15 was 18.6 µM; in the assay with MOLT-4, 21 µM (inactive); in the assay on NCI-H23 it was 41.8 µM (inactive); with NCI-H460, 40.9 µM (inactive); in the assay with OVCAR-5, 69.8 µM (inactive); in the assay on SF-539, 58.6 µM (inactive). In addition, the GI50 with SW-620 was 9.91 µM (inactive); with U-251, 31.3 µM (inactive); in the assay with UACC-257 it was 32.1 µM (inactive); in the assay with UO-31, 19.1 µM (inactive).

For `O=c1nc2sc3ccc4ccccc4c3n2nc1-c1ccccc1`, the GI50 with A549 is 28.6 µM (inactive); in the assay on ACHN, 27.8 µM (inactive); with CAKI-1, 31.1 µM (inactive); in the assay on EKVX, 41.8 µM (inactive); with HCC 2998, > 100 µM (inactive); in the assay on HCT-15, 45.1 µM. The GI50 with MOLT-4 is > 100 µM (inactive); in the assay on NCI-H23, 27.2 µM (inactive); with NCI-H460, 22.1 µM (inactive); in the assay with OVCAR-5 it was > 100 µM (inactive); in the assay with SF-539, 14.8 µM (inactive); in the assay with SW-620, 32.5 µM (inactive). Also, the values for the GI50 in the assay with U-251, in the assay with UACC-257 and in the assay on UO-31 were 19 µM (inactive), 99.3 µM (inactive) and 22.3 µM (inactive), respectively.

As to `Cc1ccccc1NC(=O)C(=O)Cc1nc2ccccc2s1`, the GI50 with A498 was > 100 µM (inactive); in the assay with A549, > 100 µM (inactive); in the assay with ACHN, > 100 µM (inactive); in the assay on CAKI-1 it was > 100 µM (inactive); in the assay on HCC 2998, > 100 µM (inactive); in the assay with HCT-15 it was above 100 µM. The GI50 in the assay with MOLT-4, with NCI-H23, in the assay on NCI-H460, in the assay on OVCAR-5, with SF-539 and in the assay with SW-620 was > 100 µM (inactive) in each case. Moreover, the GI50 in the assay with U-251, with UACC-257 and in the assay with UO-31 was > 100 µM (inactive) throughout.

Regarding `COC(=O)c1ccccc1N1C(=O)Cc2ccccc2C1=O`, the GI50 in the assay with A549 was > 100 µM (inactive); in the assay on ACHN, > 100 µM (inactive); in the assay with EKVX, > 100 µM (inactive); with HCC 2998, > 100 µM (inactive); in the assay on HCT-15, above 100 µM; with MOLT-4 it was > 100 µM (inactive). The GI50 with NCI-H23 was > 100 µM (inactive); with OVCAR-5, > 100 µM (inactive); in the assay on SF-539 it was 75.3 µM (inactive); in the assay on SW-620, > 100 µM (inactive); in the assay on U-251 it was > 100 µM (inactive); in the assay on UACC-257 it was > 100 µM (inactive). Further, the GI50 in the assay with UO-31 is > 100 µM (inactive).

On to `O=C(N/C(=C\c1ccc(F)cc1)c1nc2ccccc2[nH]1)c1ccccc1`, for which the GI50 is > 100 µM (inactive) in the assay on A498; > 100 µM (inactive) in the assay on A549; > 100 µM (inactive) in the assay with ACHN; > 100 µM (inactive) in the assay with CAKI-1; > 100 µM (inactive) in the assay with EKVX; above 100 µM in the assay with HCT-15. The GI50 in the assay with MOLT-4, in the assay on NCI-H23, with NCI-H460, with OVCAR-5, in the assay with SF-539 and with SW-620 was > 100 µM (inactive) in each case. In addition, the GI50 in the assay with U-251, in the assay on UACC-257 and in the assay on UO-31 was > 100 µM (inactive) each time.

For the compound `CC1=C(C(=O)Nc2cc(F)c(F)cc2F)C(c2ccc3c(c2)OCO3)C(C(=O)Nc2cc(F)c(F)cc2F)=C(C)N1`, the GI50 with A498 was 21 µM (inactive); in the assay on A549, 22.6 µM (inactive); with ACHN, 19.1 µM (inactive); in the assay with CAKI-1, 11.8 µM (inactive); in the assay on EKVX, 18 µM (inactive); in the assay on HCC 2998, 19.2 µM (inactive). Further, the GI50 in the assay on MOLT-4 is 14.2 µM (inactive); with NCI-H23, 19.8 µM (inactive); in the assay on NCI-H460 it was 25.2 µM (inactive); in the assay with OVCAR-5, 19.9 µM (inactive); with SF-539, 27.5 µM (inactive); in the assay with SW-620, 33.5 µM (inactive). Also, the values for the GI50 in the assay with U-251, in the assay with UACC-257 and with UO-31 were 27.2 µM (inactive), 25.9 µM (inactive) and 12.9 µM (inactive), respectively.

With `O=C(c1ccc(Cl)cc1)c1ccc(OCCCCCCCCCCOc2ccc(C(=O)c3ccc(Cl)cc3)cc2)cc1`, the GI50 in the assay on A498, in the assay on A549, with ACHN, with CAKI-1, in the assay on EKVX and with HCC 2998 was > 100 µM (inactive) throughout. Further, the GI50 is above 100 µM in the assay on HCT-15; > 100 µM (inactive) in the assay with MOLT-4; > 100 µM (inactive) with NCI-H23; > 100 µM (inactive) in the assay with NCI-H460; > 100 µM (inactive) in the assay on OVCAR-5; > 100 µM (inactive) with SW-620. Besides, the GI50 in the assay on U-251, in the assay on UACC-257 and in the assay on UO-31 was > 100 µM (inactive) throughout.

In the case of `COC(=O)C1=C(C(=O)OC)C2C=CC1C1C(Cl)=C(Cl)C21` (centres undefined), the GI50 was > 100 µM (inactive) in the assay on A549; > 100 µM (inactive) with ACHN; > 100 µM (inactive) in the assay with CAKI-1; > 100 µM (inactive) with EKVX; > 100 µM (inactive) in the assay with HCC 2998; above 100 µM in the assay with HCT-15. Besides, the GI50 with MOLT-4, with NCI-H23, with NCI-H460, in the assay with OVCAR-5, in the assay with SF-539 and with SW-620 was > 100 µM (inactive) throughout. Also, the GI50 in the assay with U-251, with UACC-257 and with UO-31 was > 100 µM (inactive) throughout.

Take `COc1c(C(=O)O)oc2c(OC)cccc12`: the GI50 in the assay with A498 is > 100 µM (inactive); in the assay on A549, > 100 µM (inactive); with ACHN it was > 100 µM (inactive); in the assay with EKVX, > 100 µM (inactive); in the assay with HCC 2998, > 100 µM (inactive); with HCT-15 it was above 100 µM. Also, the GI50 in the assay on MOLT-4, with NCI-H23, in the assay with NCI-H460, in the assay with OVCAR-5, in the assay on SF-539 and in the assay on SW-620 was > 100 µM (inactive) each time. In addition, the GI50 in the assay with U-251, with UACC-257 and in the assay on UO-31 was > 100 µM (inactive) each time.

For the compound `C1CCOC2(CCC3(CC2)OCCCCO3)OC1`, the GI50 in the assay with A498 is > 100 µM (inactive); with A549, > 100 µM (inactive); with ACHN, > 100 µM (inactive); in the assay on CAKI-1, > 100 µM (inactive); in the assay with HCC 2998, > 100 µM (inactive); with HCT-15, above 100 µM. Also, the GI50 in the assay on MOLT-4, in the assay with NCI-H460, in the assay on SF-539, in the assay with SW-620, in the assay with U-251 and with UACC-257 was > 100 µM (inactive) each time. Also, the GI50 with UO-31 is > 100 µM (inactive).

For the compound `CCCC(O)[C@@H](O)c1ccc2c(c1O)C(=O)c1c(OC)cccc1C2=O` (some centres undefined), the GI50 in the assay on A498 was 34.5 µM (inactive); with A549, 44 µM (inactive); in the assay on ACHN it was 34.4 µM (inactive); in the assay with CAKI-1, 27.8 µM (inactive); in the assay with EKVX, 55.1 µM (inactive); with HCC 2998, 19.4 µM (inactive). Besides, the GI50 is 26.2 µM with HCT-15; 21.1 µM (inactive) in the assay with MOLT-4; 36.6 µM (inactive) with NCI-H23; 29 µM (inactive) in the assay on NCI-H460; 54.7 µM (inactive) in the assay with OVCAR-5; 24.2 µM (inactive) in the assay with SF-539. For the same compound, the GI50 with SW-620 is 63.2 µM (inactive); in the assay with U-251, 27.2 µM (inactive); with UACC-257 it was 29.9 µM (inactive); in the assay with UO-31, 28.2 µM (inactive).

In the case of `COc1ccc(C2Cc3cc(OC)c(OC)c(OC)c3C2)cc1` (centres undefined), the GI50 in the assay with A498 is 28.6 µM (inactive); with A549, 22 µM (inactive); in the assay on ACHN it was 39.1 µM (inactive); with CAKI-1 it was 36.9 µM (inactive); in the assay on EKVX, 29 µM (inactive); with HCC 2998, 49.9 µM (inactive). The GI50 is 38.6 µM in the assay on HCT-15; 22.4 µM (inactive) in the assay on MOLT-4; 9.59 µM (inactive) in the assay on NCI-H23; 46.6 µM (inactive) with NCI-H460; 90.4 µM (inactive) in the assay with OVCAR-5; 64.7 µM (inactive) in the assay on SF-539. The GI50 in the assay with SW-620 was 29.4 µM (inactive); in the assay with U-251 it was 73.5 µM (inactive); with UACC-257 it was 23.2 µM (inactive); in the assay on UO-31, 21.3 µM (inactive).
